Measured values from patent publication US9695155B2, “Herbicidal substituted pyrimidinyloxy benzene compounds” (E. I. DU PONT DE NEMOURS AND COMPANY, priority 2013, dated 2017).

Tests used:
morningglory [1] = test: Test A postemergence; type: in vivo, Ipomoea spp.; conditions: Ipomoea, post-emergence, 240 h, read-out: Plant response rating, Morningglory
Procedure, shortened: (§1)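 Compounds in non-phytotoxic solvent with surfactant applied as soil spray preemergence, or postemergence to plants 2-10 cm at one- to two-leaf stage, in loam/sand. After approximately 10 days in greenhouse, injury rated visually versus untreated controls, 0 (no effect) to 100 (complete control).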

wheat [2] = test: Test A preemergence; type: in vivo, Triticum aestivum
Procedure, shortened: as §1

johnsongrass = test: Test C postemergence; type: in vivo, Sorghum halepense
Procedure, shortened: (§2)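 Seeds are planted in blended loam soil and sand and treated preemergence, while seedlings in a peat moss/vermiculite medium receive postemergence sprays at 2 to 18 cm height. All plants stay in the greenhouse for 13 to 15 days before visual comparison with controls on a 0–100 scale.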

barnyardgrass [3] = test: Test A preemergence; type: in vivo, Echinochloa crus-galli
Procedure, shortened: as §1

wheat [4] = test: Test A postemergence; type: in vivo, Triticum aestivum; conditions: Triticum aestivum, post-emergence, 240 h, read-out: Plant response rating, Wheat
Procedure, shortened: as §1

sedge, umbrella = test: Test B flooded paddy test; type: in vivo, Cyperus difformis; conditions: Cyperus difformis, Flood, 250 g ai/ha; 0 to 100 scale where 0 is no effect and 100 is complete control; read-out: Plant response rating, Sedge, Umbrella
Procedure, shortened: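 Seedlings are raised to two leaves, flooded to a depth of 3 cm and dosed by adding the compound to the floodwater. Water level is kept constant, and plants are scored visually versus controls 13–15 days later (0 = no effect, 100 = complete control).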

oilseed rape = test: Test C postemergence; type: in vivo, Brassica napus
Procedure, shortened: as §2

barnyardgrass [5] = test: Test C postemergence; type: in vivo, Echinochloa crus-galli; conditions: Echinochloa crus-galli, post-emergence
Procedure, shortened: as §2

blackgrass = test: Test C postemergence; type: in vivo, Alopecurus myosuroides; conditions: Alopecurus myosuroides, post-emergence
Procedure, shortened: as §2

morningglory [6] = test: Test A preemergence; type: in vivo, Ipomoea spp.
Procedure, shortened: as §1

morningglory [7] = test: Test C postemergence; type: in vivo, Ipomoea coccinea
Procedure, shortened: as §2

corn = test: Test A preemergence; type: in vivo, Zea mays
Procedure, shortened: as §1

kochia = test: Test C postemergence; type: in vivo, Kochia scoparia; conditions: Bassia scoparia, post-emergence
Procedure, shortened: as §2

yellow nutsedge = test: Test C postemergence; type: in vivo, Cyperus esculentus
Procedure, shortened: as §2

large (Lg) crabgrass = test: Test C postemergence; type: in vivo, Digitaria sanguinalis; conditions: Digitaria sanguinalis, post-emergence
Procedure, shortened: as §2

[8] = 125 g ai/ha, 0 to 100 scale, 0 no effect, 100 complete control
[9] = 500 g ai/ha, 0 to 100 scale where 0 is no effect and 100 is complete control
[10] = 31 g ai/ha, postemergence, visual rating, scale 0 to 100 (0 no effect, 100 complete control), 13 to 15 days

Which pest or weed control at 125 g/ha (morningglory [1]; [8]) does the source give for `N#Cc1cccc(Oc2ncc(Cl)cn2)c1-n1cc(OCC(F)(F)F)cn1` [Compound 274, 3-[(5-chloro-2-pyrimidinyl)oxy]-2-[4-(2,2,2-trifluoroethoxy)-1H-pyrazol-1-yl]benzonitrile] here?
Its pest or weed control at 125 g/ha is 90%.

And the pest or weed control at 500 g/ha (morningglory [1]; [9])?
The pest or weed control at 500 g/ha was 100%.

What about the “Wheat plant response rating (0 to 100 scale)” value (wheat [2]; 125 g ai/ha) of the same compound?
Its value is 40.

And the plant injury at 500 g/ha (wheat [2]; Triticum aestivum, pre-emergence, 240 h, 500 g ai/ha, 0 to 100 scale where 0 is no effect and 100 is complete control, read-out: Wheat plant response rating)?
The plant injury at 500 g/ha was 80%.

What about the “Johnsongrass plant response rating” value (johnsongrass; [10]) of the same compound?
The value was 5.

What about the pest or weed control at 16 g/ha (johnsongrass; Sorghum halepense, post-emergence, 16 g ai/ha, postemergence, 0 is no effect, 100 is complete control, read-out: Plant response rating (0 to 100), Johnsongrass) of the same compound?
The pest or weed control at 16 g/ha was 5%.

And the pest or weed control at 125 g/ha (johnsongrass; Sorghum halepense, post-emergence, 125 g ai/ha, postemergence, visual rating, scale 0 to 100 (0 no effect, 100 complete control), read-out: Plant response rating, Johnsongrass)?
The pest or weed control at 125 g/ha was 10%.

And the pest or weed control at 62 g/ha (johnsongrass; Sorghum halepense, post-emergence, Postemergence, 62 g ai/ha, scale 0 to 100 (0 no effect, 100 complete control), 13 to 15 days, read-out: Plant response rating, Johnsongrass)?
Its pest or weed control at 62 g/ha is 5%.

And the “Barnyardgrass plant response rating (0 to 100 scale, 0 is no effect, 100 is complete control)” value (barnyardgrass [3]; 125 g ai/ha)?
The value was 90.

And the pest or weed control at 500 g/ha (barnyardgrass [3]; Echinochloa crus-galli, pre-emergence, 240 h, 500 g ai/ha, 0 to 100 scale where 0 is no effect and 100 is complete control, read-out: Barnyardgrass plant response rating)?
The pest or weed control at 500 g/ha was 100%.

What about the plant injury at 125 g/ha (wheat [4]; [8]) of the same compound?
The plant injury at 125 g/ha was 70%.

What about the plant injury at 500 g/ha (wheat [4]; [9]) of the same compound?
The plant injury at 500 g/ha was 80%.

And the pest or weed control at 250 g/ha (sedge, umbrella)?
The pest or weed control at 250 g/ha was 95%.

And the “Oilseed Rape plant response rating” value (oilseed rape; [10])?
Its value is 80.

What about the plant injury at 16 g/ha (oilseed rape; Brassica napus, post-emergence, 16 g ai/ha, postemergence, 0 is no effect, 100 is complete control, read-out: Plant response rating (0 to 100), Oilseed Rape) of the same compound?
The plant injury at 16 g/ha was 60%.

What about the plant injury at 125 g/ha (oilseed rape; Brassica napus, post-emergence, 125 g ai/ha, postemergence, visual rating, scale 0 to 100 (0 no effect, 100 complete control), read-out: Plant response rating, Oilseed Rape) of the same compound?
Its plant injury at 125 g/ha is 90%.

What about the plant injury at 62 g/ha (oilseed rape; Brassica napus, post-emergence, Postemergence, 62 g ai/ha, scale 0 to 100 (0 no effect, 100 complete control), 13 to 15 days, read-out: Plant response rating, Oilseed Rape) of the same compound?
The plant injury at 62 g/ha was 85%.

And the pest or weed control at 16 g/ha (barnyardgrass [5]; 16 g ai/ha, postemergence, 0 is no effect, 100 is complete control, read-out: Plant response rating (0 to 100), Barnyardgrass)?
Its pest or weed control at 16 g/ha is 5%.

What about the pest or weed control at 31 g/ha (barnyardgrass [5]; 31 g ai/ha, postemergence, visual rating, scale 0 to 100 (0 no effect, 100 complete control), 13 to 15 days, read-out: Barnyardgrass plant response rating) of the same compound?
The pest or weed control at 31 g/ha was 10%.

What about the pest or weed control at 125 g/ha (barnyardgrass [5]; 125 g ai/ha, postemergence, visual rating, scale 0 to 100 (0 no effect, 100 complete control), read-out: Plant response rating, Barnyardgrass) of the same compound?
Its pest or weed control at 125 g/ha is 15%.

And the pest or weed control at 62 g/ha (barnyardgrass [5]; Postemergence, 62 g ai/ha, scale 0 to 100 (0 no effect, 100 complete control), 13 to 15 days, read-out: Plant response rating, Barnyardgrass)?
Its pest or weed control at 62 g/ha is 10%.

And the pest or weed control at 16 g/ha (blackgrass; 16 g ai/ha, postemergence, 0 is no effect, 100 is complete control, read-out: Plant response rating (0 to 100), Blackgrass)?
The pest or weed control at 16 g/ha was 5%.

And the pest or weed control at 31 g/ha (blackgrass; 31 g ai/ha, postemergence, visual rating, scale 0 to 100 (0 no effect, 100 complete control), 13 to 15 days, read-out: Blackgrass plant response rating)?
The pest or weed control at 31 g/ha was 5%.

What about the pest or weed control at 125 g/ha (blackgrass; 125 g ai/ha, postemergence, visual rating, scale 0 to 100 (0 no effect, 100 complete control), read-out: Plant response rating, Blackgrass) of the same compound?
Its pest or weed control at 125 g/ha is 20%.

And the pest or weed control at 62 g/ha (blackgrass; Postemergence, 62 g ai/ha, scale 0 to 100 (0 no effect, 100 complete control), 13 to 15 days, read-out: Plant response rating, Blackgrass)?
Its pest or weed control at 62 g/ha is 15%.

What about the “Morningglory plant response rating (0 to 100 scale)” value (morningglory [6]; 125 g ai/ha) of the same compound?
Its value is 100.

And the pest or weed control at 500 g/ha (morningglory [6]; Ipomoea, pre-emergence, 240 h, 500 g ai/ha, 0 to 100 scale where 0 is no effect and 100 is complete control, read-out: Morningglory plant response rating)?
Its pest or weed control at 500 g/ha is 100%.

And the “Morningglory plant response rating” value (morningglory [7]; [10])?
The value was 85.

What about the pest or weed control at 16 g/ha (morningglory [7]; Ipomoea, post-emergence, 16 g ai/ha, postemergence, 0 is no effect, 100 is complete control, read-out: Plant response rating (0 to 100), Morningglory) of the same compound?
Its pest or weed control at 16 g/ha is 85%.

And the pest or weed control at 125 g/ha (morningglory [7]; Ipomoea, post-emergence, 125 g ai/ha, postemergence, visual rating, scale 0 to 100 (0 no effect, 100 complete control), read-out: Plant response rating, Morningglory)?
The pest or weed control at 125 g/ha was 95%.

What about the pest or weed control at 62 g/ha (morningglory [7]; Ipomoea, post-emergence, Postemergence, 62 g ai/ha, scale 0 to 100 (0 no effect, 100 complete control), 13 to 15 days, read-out: Plant response rating, Morningglory) of the same compound?
The pest or weed control at 62 g/ha was 95%.

And the “Corn plant response rating (0 to 100 scale)” value (corn; 125 g ai/ha)?
The value was 50.

What about the plant injury at 500 g/ha (corn; Zea mays, pre-emergence, 240 h, 500 g ai/ha, 0 to 100 scale where 0 is no effect and 100 is complete control, read-out: Corn plant response rating) of the same compound?
The plant injury at 500 g/ha was 50%.

What about the pest or weed control at 16 g/ha (kochia; 16 g ai/ha, postemergence, 0 is no effect, 100 is complete control, read-out: Plant response rating (0 to 100), Kochia) of the same compound?
The pest or weed control at 16 g/ha was 85%.

What about the pest or weed control at 31 g/ha (kochia; 31 g ai/ha, postemergence, visual rating, scale 0 to 100 (0 no effect, 100 complete control), 13 to 15 days, read-out: Kochia plant response rating) of the same compound?
The pest or weed control at 31 g/ha was 90%.

And the pest or weed control at 125 g/ha (kochia; 125 g ai/ha, postemergence, visual rating, scale 0 to 100 (0 no effect, 100 complete control), read-out: Plant response rating, Kochia)?
The pest or weed control at 125 g/ha was 100%.

What about the pest or weed control at 62 g/ha (kochia; Postemergence, 62 g ai/ha, scale 0 to 100 (0 no effect, 100 complete control), 13 to 15 days, read-out: Plant response rating, Kochia) of the same compound?
The pest or weed control at 62 g/ha was 100%.

And the “Nutsedge, Yellow plant response rating” value (yellow nutsedge; [10])?
The value was 5.

And the pest or weed control at 16 g/ha (yellow nutsedge; Cyperus, post-emergence, 16 g ai/ha, postemergence, 0 is no effect, 100 is complete control, read-out: Plant response rating (0 to 100), Nutsedge, Yellow)?
The pest or weed control at 16 g/ha was 10%.

And the pest or weed control at 125 g/ha (yellow nutsedge; Cyperus, post-emergence, 125 g ai/ha, postemergence, visual rating, scale 0 to 100 (0 no effect, 100 complete control), read-out: Plant response rating, Nutsedge, Yellow)?
The pest or weed control at 125 g/ha was 10%.

And the pest or weed control at 62 g/ha (yellow nutsedge; Cyperus, post-emergence, Postemergence, 62 g ai/ha, scale 0 to 100 (0 no effect, 100 complete control), 13 to 15 days, read-out: Plant response rating, Nutsedge, Yellow)?
Its pest or weed control at 62 g/ha is 20%.

What about the pest or weed control at 16 g/ha (large (Lg) crabgrass; 16 g ai/ha, postemergence, 0 is no effect, 100 is complete control, read-out: Plant response rating (0 to 100), Crabgrass, Large) of the same compound?
The pest or weed control at 16 g/ha was 5%.

And the pest or weed control at 31 g/ha (large (Lg) crabgrass; 31 g ai/ha, postemergence, visual rating, scale 0 to 100 (0 no effect, 100 complete control), 13 to 15 days, read-out: Crabgrass, Large plant response rating)?
The pest or weed control at 31 g/ha was 5%.

And the pest or weed control at 125 g/ha (large (Lg) crabgrass; 125 g ai/ha, postemergence, visual rating, scale 0 to 100 (0 no effect, 100 complete control), read-out: Plant response rating, Crabgrass, Large)?
Its pest or weed control at 125 g/ha is 60%.

And the pest or weed control at 62 g/ha (large (Lg) crabgrass; Postemergence, 62 g ai/ha, scale 0 to 100 (0 no effect, 100 complete control), 13 to 15 days, read-out: Plant response rating, Crabgrass, Large)?
Its pest or weed control at 62 g/ha is 30%.
